This is an account of results in US9901592B2 (priority 2008, dated 2018).

≈ marks a conversion by molar mass, not a printed value. Marks after values point to notes of the source that are not given here.

For one test, the system named is S. aureus. The class given is cell-based.
Test [1] relates to ribosome erm-dimethylated at A2058. Put plainly: binding to the ribosome.
For a further test, the system named is S. pneumoniae. The test is classed as cell-based.
The test system of the next test is Mycobacterium bovis BCG. The class given is cell-based.
Another test has as its system N. meningitidis. Nature of the test: MIC, CLSI broth microdilution, invasive isolates. The class given is cell-based. As for the experimental part:
Example. […] Colonization of the nasopharynx (NP) by NM can lead to invasive meningococcal disease. Chemoprophylaxis is used to eradicate NP colonization and prevent transmission to nonimmune contacts. […] 62 isolates (91.9% blood culture) of NM were collected from 29 medical centers in North and South America and Europe (1997-2008). […] Serological identification was performed for serogroups (SGs) B, C, Y and W135.
(Dilution methods test growth across graded concentrations, often in twofold steps.)

For the next test, the system named is Legionella pneumophila. Nature of the test: microbe, parasite or virus in culture. The class given is cell-based, L. pneumophila.
In a further test the test system is group A streptococci. Nature of the test: microbe, parasite or virus in culture. The following applies: Streptococcus pyogenes. The class given is cell-based, S. pyogenes.
The subject of a further test is pneumococci. Nature of the test: microbe, parasite or virus in culture. The test is classed as cell-based, S. pneumoniae. As to conditions: Streptococcus pneumoniae.
Setting [2] is: Neisseria meningitidis, 62 N. meningitidis isolates.

As for `CC[C@H]1OC(=O)[C@H](C)[C@@H](OC2CC(C)(OC)C(O)C(C)O2)[C@H](C)[C@@H](OC2OC(C)CC(N(C)C)C2O)[C@@](C)(OC)C[C@@H](C)C(=O)[C@H](C)[C@H]2N(CCCCn3cc(-c4cccc(N)c4)nn3)C(=O)O[C@]12C` (stereo partly shown) [Entry 20c], the MIC in the test on S. aureus is 8 µg/mL (≈ 8.1 µM); in the test on S. pneumoniae, “≦0.0625 μg/mL”. The “binding to the ribosome” value in test [1] is reported as “considerable binding”.

With `CC[C@H]1OC(=O)[C@H](C)[C@@H](OC2CC(C)(OC)C(O)C(C)O2)[C@H](C)[C@@H](OC2OC(C)CC(N(C)C)C2O)[C@@](C)(OC)C[C@@H](C)C(=O)[C@H](C)[C@H]2N(CCCCn3cc(COc4c(Cl)cccc4Cl)nn3)C(=O)O[C@]12C` (stereo partly shown) [Entry 20d], the MIC was 8 µg/mL (≈ 7.47 µM) in the test with S. aureus and “≦0.0625 μg/mL” against S. pneumoniae.

For the compound `CC[C@H]1OC(=O)[C@H](C)[C@@H](OC2CC(C)(OC)C(O)C(C)O2)[C@H](C)[C@@H](OC2OC(C)CC(N(C)C)C2O)[C@@](C)(OC)C[C@@H](C)C(=O)[C@H](C)[C@H]2N(CCCCn3cc(Cn4nnc5ccccc54)nn3)C(=O)O[C@]12C` (stereo partly shown) [Entry 20e], the results for the MIC in the test on S. aureus and in the test with S. pneumoniae were 8 µg/mL (≈ 7.79 µM) and “≦0.0625 μg/mL”, respectively.

Regarding `CO[C@H]1/C=C/O[C@@]2(C)Oc3c(C)c(O)c4c(O)c(c(/C=N/N5CCN(C)CC5)c(O)c4c3C2=O)NC(=O)/C(C)=C\C=C\[C@H](C)[C@H](O)[C@@H](C)[C@@H](O)[C@@H](C)[C@H](OC(C)=O)[C@@H]1C` [Rifampin], in the test with Mycobacterium bovis BCG (DETA-NO-induced growth arrest), the “reduction of lethality by growth arrest” value is on record as “no effect”. Also, in the test on N. meningitidis (CLSI (M100-S19, 2009) criteria), the “% Res.” value turned out to be 0.0% and the “% Susc.” value was 100.0%. In the test on N. meningitidis (setting [2]), the MIC was in the range of 0.008 to 0.12 µg/mL (≈ 0.00972 to 0.146 µM), the MIC50 turned out to be 0.015 µg/mL (≈ 0.0182 µM) and the MIC90 is 0.06 µg/mL (≈ 0.0729 µM). Further, the “MIC Range” value against Legionella pneumophila (LPN (30)) was 0.03-0.06^a μg/ml. In the test with Legionella pneumophila (Legionella pneumophila), this compound yielded an MIC50 of 0.03 µg/mL (≈ 0.0365 µM) and an MIC90 of 0.03 µg/mL (≈ 0.0365 µM).

As for `COc1c(N2C[C@@H]3CCCN[C@@H]3C2)c(F)cc2c(=O)c(C(=O)O)cn(C3CC3)c12` [moxifloxacin], in the test with group A streptococci, the MIC50 stood at 0.25 µg/mL (≈ 0.623 µM) and the MIC90 stood at 0.25 µg/mL (≈ 0.623 µM). In the test on pneumococci (pneumococci, L4 mutations (27)), this compound registered an MIC50 of 0.25 µg/mL (≈ 0.623 µM) and an MIC90 of 0.5 µg/mL (≈ 1.25 µM). Also, in the test on pneumococci (read-out: MIC range, pneumococci, L4 mutations (27)), the MIC is 0.125 to 4 µg/mL (≈ 0.311 to 9.96 µM). For the same compound, in the test with Mycobacterium bovis BCG (growth-arrested cells), the “activity during growth arrest relative to gatifloxacin” value turned out to be 2 fold.
